Experimental findings from patent US20180106782A1, “HIGH THROUGHPUT CARDIOTOXICITY SCREENING PLATFORM” (The Board of Trustees of the Leland Stanford Junior …, priority 2016, published 2018) are described below.

The test system of the experiment is μpatterned hiPSC-CMs. Briefly: traction force microscopy of moving microbeads under beating μpatterned hiPSC-CMs. Format: cell-based, human. The conditions noted are these: for absolute values of dmax, VC, VR, ΣFmax, PC and PR: six single cells (FIG. 5). The protocol: We cultured single hiPSC-CMs on Matrigel micropatterns, which were transferred from printed glass coverslips onto the surface of polyacrylamide hydrogels with a stiffness of 10 kPa as previously described. (Ribeiro 2015a) In summary, Matrigel was diluted 1:10 in L15 medium (Thermo Fisher) and added to the top of elastomeric microstamps composed of polydimethylsiloxane 182 (Dow Corning) to be incubated at 3-4° C. overnight. Microstamps consisted of 2000 μm^2 rectangular features with an aspect ratio of 7:1 (length:width). We gently aspirated Matrigel after the overnight incubation, washed the stamps twice in L15 medium, aspirated L15 medium from the surface and dried it with a low stream of N2 gas. We then used microstamps to micropattern the Matrigel rectangular features on clean glass coverslips by microcontact printing. Matrigel on micropatterns was transferred to the surface of the polyacrylamide substrates during the gelation process by placing the patterned coverslip in contact with the top of the acrylamide prepolymer solution right before gelation. The aqueous prepolymer solution to be gelled was composed of acrylamide (Sigma-Aldrich)(10% w/v), bisacrylamide (Sigma-Aldrich) (0.1% w/v), ammonium persulfate (Sigma-Aldrich) (0.01% w/v) and N,N,N′,N′-tetramethylethylenediamine (Sigma-Aldrich) (0.1% v/v), HEPES (Thermo Fisher) (35 mM) and Milli-Q water. To calculate the forces generated by cells attached to polyacrylamide surfaces with traction force microscopy, green fluorescent microbeads with a diameter of 0.2 μm (Thermo Fisher) were also dispersed in the gel solution to yield a final concentration of 6.25×10^9 microbeads/mL. We gelled acrylamide on top of another coverslip functionalized with 3-(trimethoxysilyl)propyl methacrylate (Sigma-Aldrich), which binds polyacrylamide. […] Once polymerized, polyacrylamide substrates were incubated in PBS for at least 2 hours and the top coverslips were carefully removed with a razor blade. We seeded hiPSC-CMs on these polyacrylamide hydrogel substrates after washing them 3 times with PBS.
We passaged hiPSC-CMs onto micropatterned polyacrylamide devices at a density of 1000 cells/cm^2. For this purpose, cultures of thawed cells were washed twice with PBS and incubated in 1 mL of Accutase for 8-10 min. After observing cell detachment from the bottom of the wells, we quenched Accutase with Dulbecco's modified Eagle's medium (Thermo Fisher) containing 12% fetal bovine serum and counted the concentration of cells in medium with a hemocytometer. Then, we centrifuged cells at 83 rcf for 3 min at room temperature and aspirated the supernatant to resuspend the pelleted cells in the required volume of medium (RPMI-1640 cell-culture medium with 5 μM ROCK inhibitor) for adding 150 μL of cell solution to the surface of hydrogel devices at a concentration of 1000 cells/cm^2. After 1.5 h of incubation, we added 2.5 mL of medium to the well containing hydrogel devices and added fresh medium without ROCK inhibitor after 2 days. Single beating cells on Matrigel patterns were analyzed between 5-10 days after seeding.
We imaged the movement of beating hiPSC-CMs and the displacement of fluorescent microbeads embedded in polyacrylamide substrates with a Zeiss Axiovert 200M inverted microscope equipped with a Zeiss Axiocam MRm CCD camera. This microscope also contained an environmental chamber (PeCon) to set temperature at 37° C. Unless otherwise noted, we acquired microscopy videos while electrically pacing hiPSC-CMs with 10 ms-wide bipolar pulses of electric-field stimulation at 10-15 V with a frequency of 1 Hz (Myopacer, lonOptix).
To induce contractile changes in hiPSC-CMs, we added drugs known to affect CM contractile machinery to the culture medium. We analyzed the mechanical output of cells after adding drugs. […]

Molecules are shown by their SMILES.

Turning to `COC(=O)N1CCN(Cc2cccc(NC(=O)Nc3ccc(C)nc3)c2F)CC1` [omecamtiv mecarbil], where the note is “0.1 μM and 10 nM omecamtiv mecarbil, videos within 5 minutes after adding, 6 cells (FIG. 10)”, the “mechanical output (inotropy)” value is recorded as “decreased mechanical output (negative inotropy)”. For the same compound, the “ΣFmax and br, acute” value (0.1 μM omecamtiv mecarbil, single cell (FIG. 6D)) was “slight acute increase”. Moreover, for the setting “0.1 μM omecamtiv mecarbil, single cell, even decreased in some contractile events (FIG. 6E)”, the “absolute values of PC and PR right after adding” value was “did not vary”. The “PR (peak power of relaxation)” value is 0.02 picoW (OM 0.1 μM (FIG. 6), row 'acute', single cell, no OM: 0.6) and 0.59 picoW (OM 0.1 μM (FIG. 6), row 'chronic', single cell, no OM: 0.6). Besides, the “ΣFmax (peak force)” value is 0.14 μN (OM 0.1 μM (FIG. 6), row 'acute', single cell, no OM: 0.7) and 0.72 μN (OM 0.1 μM (FIG. 6), row 'chronic', single cell, no OM: 0.7). Besides, the “PC (peak power of contraction)” value (OM 0.1 μM (FIG. 6), row 'acute', single cell, no OM: 0.75) stood at 0.04 picoW and the “PC (peak power of contraction)” value (OM 0.1 μM (FIG. 6), row 'chronic', single cell, no OM: 0.75) is 0.67 picoW. The “VR (peak velocity of relaxation)” value (OM 0.1 μM (FIG. 6), row 'acute', single cell, no OM: 1.18) is listed as 0.18 μm/s and the “VR (peak velocity of relaxation)” value (OM 0.1 μM (FIG. 6), row 'chronic', single cell, no OM: 1.18) is 1.1 μm/s. Besides, the “VC (peak velocity of contraction)” value runs as follows: (OM 0.1 μM (FIG. 6), row 'acute', single cell, no OM: 1.35) 0.29 μm/s; (OM 0.1 μM (FIG. 6), row 'chronic', single cell, no OM: 1.35) 1.22 μm/s. Besides, where the note is “higher concentrations of omecamtiv mecarbil (FIG. 10D)”, the time of contractions entry is reported as “increase”. Moreover, the rate of beating result (lower concentrations of omecamtiv mecarbil (FIG. 10E)) is listed as “increased”. Besides, the “variations of t̂ and br between 0.1 μM and 10 nM” value (omecamtiv mecarbil, within 5 minutes after adding (FIG. 10D,E)) was “statistically different”. The “instantaneous acute inotropic effect” value (within 10 seconds of adding 0.1 μM omecamtiv mecarbil, single cell (FIG. 10J)) is reported as “positive inotropy”.
With `CC(C)NCC(O)c1ccc(O)c(O)c1` (stereo not drawn) [isoproterenol], the “t̂ (time between peak velocity of contraction and of relaxation)” value (0.1 μM and 1 μM isoproterenol, six cells, no significant difference between the two concentrations (FIG. 5G)) was “decreased”. In addition, the “br (beat rate)” value runs as follows: (0.1 μM and 1 μM isoproterenol, six cells, no significant difference between the two concentrations (FIG. 5H)) “increased”; (0.1 μM isoproterenol, single cell (FIG. 4D)) “increased”; (1 μM isoproterenol, single cell (FIG. 4D)) “clear increase”. Further, the “absolute values of dmax, VC, VR, ΣFmax, PC and PR” value is given as “consistently increased” (0.1 μM isoproterenol) and “decreased” (1 μM isoproterenol). Further, the “ΣFmax, PC and PR” value (1 μM isoproterenol, single cell (FIG. 4D,E)) is “substantial decrease”. The “PR (peak power of relaxation)” value amounted to 0.36 picoW (ISO 0.1 (μM per FIG. 4), single cell, no ISO: 0.28) and 0.06 picoW (ISO 1 (μM per FIG. 4), single cell, no ISO: 0.28). Besides, the “ΣFmax (peak force)” value was determined as 0.58 μN (ISO 0.1 (μM per FIG. 4), single cell, no ISO: 0.53) and 0.15 μN (ISO 1 (μM per FIG. 4), single cell, no ISO: 0.53). Also, the “PC (peak power of contraction)” value runs as follows: (ISO 0.1 (μM per FIG. 4), single cell, no ISO: 0.7) 0.86 picoW; (ISO 1 (μM per FIG. 4), single cell, no ISO: 0.7) 0.1 picoW. In addition, the “VR (peak velocity of relaxation)” value runs as follows: (ISO 0.1 (μM per FIG. 4), single cell, no ISO: 1.05) 0.85 μm/s; (ISO 1 (μM per FIG. 4), single cell, no ISO: 1.05) 0.93 μm/s. In addition, the “VC (peak velocity of contraction)” value is, setting by setting: (ISO 0.1 (μM per FIG. 4), single cell, no ISO: 1.68) 1.92 μm/s; (ISO 1 (μM per FIG. 4), single cell, no ISO: 1.68) 0.43 μm/s. Also, the “inotropic and chronotropic response” value (extracellular isoproterenol 0.1 μM (FIGS. 4 and 5)) was “positive inotropic and positive chronotropic responses”; the “inotropic and chronotropic response” value (isoproterenol increased to 1 μM (FIGS. 4 and 5)) is recorded as “negative inotropic effect, but a stronger chronotropic response”.
